Tests used:
[1] = target: T1, Estrogen receptor (Ovis aries) (UniProt P49885+Q9TU15); assay: Relative binding affinity for lamb uterine estrogen receptor at 25 degree C; type: protein assay
[2] = target: T1, Estrogen receptor (Ovis aries); assay: Relative binding affinity for lamb uterine estrogen receptor at 4C; type: protein assay

Row | Structure (SMILES) | RBA [1] | RBA [2]
1 | CO[C@H]1C[C@@]2(C)[C@@H](CC[C@@]2(O)/C=C\Cl)[C@@H]2CCc3cc(O)ccc3[C@H]21 | 195 | 22
2 | CO[C@H]1C[C@@]2(C)[C@@H](CC[C@@]2(O)/C=C\I)[C@@H]2CCc3cc(O)ccc3[C@H]21 | 513 | 48
3 | CO[C@H]1C[C@@]2(C)[C@@H](CC[C@@]2(O)/C=C/I)[C@@H]2CCc3cc(O)ccc3[C@H]21 | 65 | 34
4 | C[C@]12CC[C@@H]3c4ccc(O)cc4CC[C@H]3[C@@H]1CC[C@@]2(O)/C=C\I | 776 | 202
5 | C[C@]12CC[C@@H]3c4ccc(O)cc4CC[C@H]3[C@@H]1CC[C@@]2(O)/C=C\Cl | 199 | 126
6 | C[C@]12CC[C@@H]3c4ccc(O)cc4CC[C@H]3[C@@H]1CC[C@@]2(O)/C=C/Cl | 89 | 102
7 | C[C@]12CC[C@@H]3c4ccc(O)cc4CC[C@H]3[C@@H]1CC[C@@]2(O)/C=C/I | 62 | 77

Further lines, results first:

Row | RBA [1] | RBA [2] | Structure (SMILES)
8 | 65 | 29 | CO[C@H]1C[C@@]2(C)[C@@H](CC[C@@]2(O)/C=C/Cl)[C@@H]2CCc3cc(O)ccc3[C@H]21
9 | 1200 | 98 | C=C[C@H]1C[C@@]2(C)[C@@H](CC[C@@]2(O)/C=C\I)[C@@H]2CCc3cc(O)ccc3[C@H]21
10 | 704 | 101 | C=C[C@H]1C[C@@]2(C)[C@@H](CC[C@@]2(O)/C=C\Cl)[C@@H]2CCc3cc(O)ccc3[C@H]21
11 | 447 | 78 | C=C[C@H]1C[C@@]2(C)[C@@H](CC[C@@]2(O)/C=C/I)[C@@H]2CCc3cc(O)ccc3[C@H]21
12 | 724 | 107 | C=C[C@H]1C[C@@]2(C)[C@@H](CC[C@@]2(O)/C=C/Cl)[C@@H]2CCc3cc(O)ccc3[C@H]21
